Where two headings read alike, the source gives them in different places.
Columns and labels:
[1] = tested on: histamine-induced gastric secretion of acid; assay: In vivo antisecretory activity in histamine-induced gastric secretion (stomach perfused rat); settings: iv, read-out: ED50 (histamine-induced gastric secretion)
Excerpt: The ability of the test compounds to inhibit histamine-induced gastric secretion of acid was investigated after intravenous or intraduodenal administration in stomach perfused rats, according to Gosh and Schild [Br. J. Pharmacol. Chemother. 13, 54 (1958)]. The preparation of the animals in general anesthesia (urethane 1 g.kg^-1 i.p.) and constant temperature was achieved by inserting and tying in place polyethyl tubes (PE 50) in the esophagus and in the pyloric-antral region. After the stomach was washed to remove residuals of food, continuous perfusion of the stomach was started with saline, 0.5 ml.min^-1 (37° C.), primed by a Jobling peristaltic pump. After 30 minutes of perfusion adaptation, samples of the stomach perfusate were collected at 30 min. intervals and titrated for acid content, expressed as μEq of 1N NaOH. As control acid output became constant, intravenous perfusion of histamine (1 mg.kg^-1hr^-1) was started and maintained throughout the experimental period. After the acid secretion had reached the steadily higher level, increasing doses of the test compound were injected intravenously in order to obtain dose-response functions. The ED50 was then calculated by standard procedure.

histamine H2 -receptors = target: T1, histamine H2 -receptors (Cavia porcellus, UniProt P47747); assay: In vitro inhibitory activity in histamine-induced tachycardia (guinea pig atria); inhibition of the histamine-evoked positive chronotropic effect; settings: isolated guinea pig atria, Krebs-Henseleit pH 7.4, 32° C., histamine 10^-6 g.ml^-1, 30 minutes; read-out: EC50 (average effective concentration of the H2-antagonists, inhibition of histamine-induced tachycardia)
T1 construct: isolated guinea pig atria suspended in an organ bath; from tissue; host or cells: isolated guinea pig atria
Procedure: The myocardial preparation, loaded with 1 g isometric tension, was allowed to stabilize for 60 minutes, and myocardial contractions were recorded through an isometric lever connected to a strain-gauge coupler, and the instantaneous rate was monitored with a cardiotachometer and a heat-writing pen recorder. After two control responses to histamine (10^-6 g.ml^-1) the test compounds were added to the bath at the desired final concentration and left for 30 minutes before the atria were again challenged with histamine. The chronotropic response obtained in the presence of the antagonist was then compared to the control response to histamine, and the percent reduction of the histamine H2 -evoked response was calculated. […] 3, Smooth muscle, Ed. Daniel E. E. Paton, M., Plenum Press. New York (1975); Ash and Schild, Br. J. Pharmacol. Chemother. 27, 427-439, 1966.

[2] = stomach perfused rat, urethane anesthesia, histamine 1 mg.kg^-1hr^-1 i.v., values expressed taking the compound as a base

T1 sequence (P47747 whole entry): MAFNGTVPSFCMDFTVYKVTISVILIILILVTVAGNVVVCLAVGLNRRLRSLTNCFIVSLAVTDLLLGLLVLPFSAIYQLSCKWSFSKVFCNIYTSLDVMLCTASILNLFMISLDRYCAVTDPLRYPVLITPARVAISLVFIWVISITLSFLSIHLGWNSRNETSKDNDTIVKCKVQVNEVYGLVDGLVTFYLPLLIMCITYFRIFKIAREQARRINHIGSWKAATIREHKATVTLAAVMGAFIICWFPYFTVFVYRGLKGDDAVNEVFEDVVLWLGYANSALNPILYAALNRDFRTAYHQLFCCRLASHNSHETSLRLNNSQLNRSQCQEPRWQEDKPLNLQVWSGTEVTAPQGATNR

`CN/C(=N/CCSCc1nc[nH]c1C)NC#N` [Cimetidine, reference compound] was tested, and the ED50 ([1]; Rattus norvegicus) was 0.56 mg/kg.

In the case of `CC(C)NC=Nc1ccc(-c2c[nH]c(O)n2)cc1` [16 (aa), N-Isopropyl-N'-[4-(2-hydroxy-imidazol-4-yl)phenyl]-formamidine], the ED50 [1, 2] is reported as 0.065 mg/kg and the EC50 (histamine H2 -receptors) is reported as 194 nM.

`C=CCNC=Nc1ccc(-c2c[nH]c(C)n2)cc1` [16 (c), N-Allyl-N'-[4-(2-methyl-imidazol-4-yl)phenyl]-formamidine] was tested, and the ED50 [1, 2] was 0.025 mg/kg and the EC50 (histamine H2 -receptors) was 120 nM.

`Cc1nc(-c2ccc(N=CNC(C)(C)C)cc2)c[nH]1` [Example 17, N-tert.Butyl-N'-[4-(2-methyl-imidazol-4-yl)phenyl]-formamidine] showed an ED50 [1, 2] of 0.08 mg/kg and an EC50 (histamine H2 -receptors) of 400 nM.

`CCNC=Nc1ccc(-c2c[nH]c(C)n2)cc1` [16 (a), N-Ethyl-N'-[4-(2-methyl-imidazol-4-yl)phenyl]-formamidine] gave an ED50 [1, 2] of 0.032 mg/kg and an EC50 (histamine H2 -receptors) of 150 nM.

In the case of `Cc1nc(-c2ccc(N=CNC(C)C)cc2)c[nH]1` [16 (b), N-Isopropyl-N'-[4-(2-methyl-imidazol-4-yl)phenyl]-formamidine], the ED50 [1, 2] is reported as 0.067 mg/kg and the EC50 (histamine H2 -receptors) is reported as 180 nM.

From patent US4649150A, “Antiulcerogenic amidine derivatives of 2-substituted 4-phenylimidazole” (Istituto de Angeli, S.p.A., priority 1983, dated 1987)
